pIC50: −log10 of the molar value. *1 amine or outer side, *2 acyl side, *3 side chain or, on linkers, in order; H or OH if unused. Where a SMILES comes first, the peptide text is derived from it. Bridges are numbered along the chain shown (N, C = ends). [ ]: non-standard residue; d: D form. The star is where a group is joined. ξ: configuration not given here. X2 = N=C1NC(O)C[C@H]([C@H](N[*:1])C(=O)[*:2])N1; ΔAla(Z-3-ureido) = NC(=O)N/C=C(\N)C(=O)O; X1 = N=C1NCCC(C(N[*:1])C(=O)[*:2])N1; ξβ3hOrn = NCCCC(N)CC(=O)*; Dap = NC[CH](N)C(=O)O

From ChEMBL document CHEMBL4017441, “Mitigating the inhibition of human bile salt export pump by drugs: opportunities provided by physicochemical property modulation, in silico modeling, and structural modification” (Drug Metab Dispos, 2012) come the findings set out here.

The target in this test is Bile salt export pump (Homo sapiens, UniProt O95342). Type of test: ADME.
For the molecule `O=S(=O)(CCOCCc1ccccc1)NCCNCCc1ccc(O)c2nc(O)sc12`, the pIC50 is 4.45. On to `C[C@@H](COc1ccc(N2CCN(c3ccncc3)CC2)cc1)CC(=O)O`, for which the pIC50 was less than 3.00. The result for `CCCc1c2nc(C(=O)O)cc(C(F)(F)F)c2cc2c(=O)cc(C(=O)O)oc12` reads 3.44.

As to `CCCc1c2nc(C(=O)O)cc(O)c2cc2c(=O)cc(C(=O)O)oc12`, the pIC50 was less than 3.00. The same measure for `CCCc1c2nc(C(=O)O)cc(N(C)C(C)=O)c2cc2c(=O)cc(C(=O)O)oc12`: less than 3.00; for `CN(C)C(=O)c1ccc(S(=O)(=O)c2ccc(NC(=O)[C@@](C)(O)C(F)(F)F)c(Cl)c2)cc1`: more than 4.89. The result for `CC1=C(CC(=O)O)c2cc(F)ccc2/C1=C\c1ccc([S+](C)[O-])cc1` (configuration not stated) reads 4.20. The same measure for `COC(=O)[C@H](Cc1ccccc1)NC(=O)[C@@H](N)CC(=O)O`: less than 3.00; for `CCS[C@]1(SC)CC[C@H]2[C@@H]3CCC4=CC(=O)C=C[C@]4(C)[C@@]3(F)[C@@H](O)C[C@@]21C`: more than 5.00.

Consider `CCCc1nn(C)c2c(=O)[nH]c(-c3cc(S(=O)(=O)N4CCN(C)CC4)ccc3OCC)nc12`, for which the pIC50 was 4.78.

Turning to `Cc1ccc2c(c1)c(-c1ccnc3c(C)cccc13)c(C)n2CC(=O)O`, the pIC50 is more than 5.00. Take `CCCCCC(O)C1C(=O)OC(C)C(O)/C=C/C=C/C=C/C=C/C=C(/C)C(O)CC(O)CC(O)CC(O)CC(O)CC(O)CC1O` (configuration not stated): the pIC50 was 3.79. The same measure for `CC(=O)NS(=O)(=O)c1ccc(NC(=O)c2ccccc2C(=O)O)cc1`: less than 3.00; for `Cc1ccc2c(c1)c(-c1ccnc3c(C(F)(F)F)cccc13)c(C)n2CC(=O)O`: more than 5.00; for `CNC[C@H](O)Cc1ccc(Cl)c(C(=O)NCC23CC4CC(CC(C4)C2)C3)c1`: 3.88. In the case of `Cc1cc(-c2ccc(N3C[C@H](Cn4ccnn4)OC3=O)cc2F)on1`, the pIC50 is less than 3.00.

Regarding `Nc1ccccc1C(=O)NCC(=O)O`, the pIC50 was less than 3.00. The same measure for `COc1ccccc1N1CCN(CCCNc2cc(=O)n(C)c(=O)n2C)CC1`: more than 4.95; for `Nc1ccc([As](=O)(O)O)cc1`: less than 3.00; for `O=c1[nH]c2c(O)ccc(CCNCCCS(=O)(=O)CCCOCCc3ccccc3)c2s1`: 4.49. The same measure for `CCCSc1nc(N)c2ncn([C@@H]3O[C@H](COP(=O)(O)OP(=O)(O)C(Cl)(Cl)P(=O)(O)O)[C@@H](O)[C@H]3O)c2n1`: less than 3.00; for `NC(=O)CN1CCCC1=O`: less than 3.00. The result for `Cc1n[nH]c(C)c1Cc1sc2c(c1C(=O)N1C[C@H](O)CO1)c(=O)n(C)c(=O)n2CC(C)C` reads 3.61. For `Cc1ccc2c(c1)c(-c1ccnc3c(Cl)cccc13)c(C)n2CC(=O)O`, the pIC50 was more than 5.00. The same measure for `COc1nc(C)cnc1NS(=O)(=O)c1cccnc1-c1ccc(CC(C)C)cc1`: 4.71; for `CCCc1ncc(-c2ccnc(Nc3ccc(S(=O)(=O)NCCOC)cc3)n2)n1C(C)C`: more than 5.00; for `NS(=O)(=O)c1ccc(-c2ccc(OC[C@H](O)CCc3cccnc3)cc2)s1`: less than 3.00.

Take `CC1(C)COC(=O)C1O` (configuration not stated): the pIC50 was less than 3.00. Consider `Cc1ccc(OC(C)(C)[C@H]2OC[C@@H](C/C=C\CCC(=O)O)[C@@H](c3cccnc3)O2)c(C#N)c1`, for which the pIC50 was more than 5.00. The same measure for `COc1ccnc(-c2cccc(C)c2[S+]([O-])c2nc3ccccc3[nH]2)c1` (configuration not stated): more than 5.00; for `CC(=O)Nc1ccccc1OC[C@@H](O)CNC1CCN(Cc2ccc(Cl)cc2)CC1`: 4.26. On to `COc1ccc(Nc2ccn(-c3ccccc3)n2)cc1`, for which the pIC50 is 4.64. The result for `CCC(=O)OC(OP(=O)(CCCCc1ccccc1)CC(=O)N1CC(C2CCCCC2)CC1C(=O)O)C(C)C` (configuration not stated) reads more than 4.87.

Consider `CCOCCNS(=O)(=O)c1ccc(Nc2nccc(-c3cnc(C)n3C(C)C)n2)cc1`, for which the pIC50 is more than 5.00. On to `CC(=O)Nc1ccccc1OC[C@@](C)(O)CNC1CCN(Cc2ccc(Cl)cc2)CC1`, for which the pIC50 is 4.15. The result for `Cc1ccc(NC(=O)c2cccc3c2oc2ccccc23)cc1NC(=O)c1cccc(CN2CCN(C)CC2)c1` reads more than 5.00; that for `Cc1ccc(CCCN[C@H](C)CO)cc1C(=O)NCC12CC3CC(CC(C3)C1)C2`, 4.18; that for `COc1ccc2c(c1)CC[C@@H]1[C@@H]2CC[C@@]2(C)[C@H]1CC[C@@]2(O)C#N`, more than 5.00. Take `Nc1ccc(CN2C(=O)C(Nc3ccc(N4CCOCC4)cc3)=C(c3ccccc3)C2=O)cn1`: the pIC50 is more than 5.00. With `CCCc1ncc(-c2ccnc(Nc3ccc(S(=O)(=O)NCCOC)cc3)n2)n1CC`, the pIC50 was more than 5.00.

With `O=C(O)c1cc2sccc2n1Cc1ccc(Cl)c(Cl)c1`, the pIC50 is 4.86. The same measure for `O=C(c1ccc(-c2ccncc2)cc1)N1CCN(S(=O)(=O)c2cc3cc(Cl)ccc3[nH]2)CC1`: more than 5.00; for `Cc1n[nH]c(C)c1Cc1sc2c(c1C(=O)N1C[C@H](O)CO1)c(=O)n(C)c(=O)n2C(C)C`: 3.15. The result for `CC(=O)Oc1c(C)cc(Nc2ccn(-c3ccccc3)n2)cc1C` reads more than 5.00.

For the molecule `CN(C)c1ncnc2c1ncn2C1OC(CO)C(N)C1O` (configuration not stated), the pIC50 is less than 3.00. For `O=C(O)c1cc2cc(O)ccc2n1Cc1ccc(Cl)c(C(F)(F)F)c1`, the pIC50 was 4.73. The same measure for `COc1ccc(-n2[nH]c(=O)c3[nH]c4cc(Cl)ccc4c(=O)c3c2=O)c(C)c1`: 3.31; for `Cc1cc2cc(C(=O)NC3Cc4ccccc4N(C[C@@H](O)CO)C3=O)[nH]c2s1` (some centres not stated): more than 4.96.

As for `CCc1cccc(C)c1CNC1=C2NC(C)=C(C)N2CC(C(N)=O)=C1`, the pIC50 was more than 5.00.

Consider `CCN(CC)C(=O)c1ccc(C(=C2CCNCC2)c2ccccc2)cc1`, for which the pIC50 is 3.98. The result for `CC1=C(C/C=C(\C)CCCC(C)CCCC(C)CCCC(C)C)C(=O)c2ccccc2C1=O` (configuration not stated) reads less than 3.00; that for `Cc1ccc(C(=O)N2CC3CNCC(C2)O3)cc1NC(=O)CC12CC3CC(CC(C3)C1)C2`, 4.23. The result for `CCCSc1nc(N)c2ncn([C@@H]3O[C@H](CO)[C@@H](O)[C@H]3O)c2n1` reads less than 3.00. The same measure for `CC(C)(C)C(=O)Oc1ccc(S(=O)(=O)Nc2ccccc2C(=O)NCC(=O)O)cc1`: 3.85; for `N=C1NCCC(C2NC(=O)/C(=C/NC(N)=O)NC(=O)C(CNC(=O)CC(N)CCCN)NC(=O)C(CO)NC(=O)C(N)CNC2=O)N1` (stereo not drawn) (H-[Dap]S[Dap](ξβ3hOrn)[ΔAla(Z-3-ureido)][X1]; lactam 1-C; configuration not given here): less than 3.00; for `CN1CCc2cccc3c2[C@H]1Cc1ccc(O)c(O)c1-3` (stereo in doubt; form 1) [APOMORPHINE]: 3.67. For `CN1CCc2cccc3c2[C@H]1Cc1ccc(O)c(O)c1-3` (stereo in doubt; form 2) [APOMORPHINE], the pIC50 was 3.41.

Turning to `N=C1NC(O)C[C@H]([C@@H]2NC(=O)/C(=C/NC(N)=O)NC(=O)[C@H](CO)NC(=O)[C@H](CO)NC(=O)[C@@H](NC(=O)CC(N)CCCN)CNC2=O)N1` (stereo partly drawn) (ξβ3hOrn-[Dap]SS[ΔAla(Z-3-ureido)][X2]; lactam 1-C), the pIC50 is less than 3.00. The same measure for `N[C@H]1C[C@@H]1c1ccccc1` [(+)-TRANYLCYPROMINE]: 3.99; for `COC(=O)C1=C(C)NC(C)=C(C(=O)OC(C)C)[C@@H]1c1cccc2nonc12` [(R)-ISRADIPINE]: more than 5.00. Regarding `C[C@@](O)(CS(=O)(=O)c1ccc(F)cc1)C(=O)Nc1ccc(C#N)c(C(F)(F)F)c1` [(S)-BICALUTAMIDE], the pIC50 was more than 5.00.

With `CCC(=N\O)/C(C)=C/c1ccc(F)cc1` [A-079], the pIC50 was 4.57. The result for `CCN(CC)CCNC(=O)c1ccc(NC(C)=O)cc1` [ACECAINIDE] reads less than 3.00; that for `CC(=O)c1ccc2c(c1)N(CCCN(C)C)c1ccccc1S2` [ACEPROMAZINE], 3.95. The result for `CC(=O)Nc1ccccc1` [ACETANILIDE] reads less than 3.00. The result for `CC(=O)Nc1cc([As](=O)(O)O)ccc1O` [ACETARSONE] reads less than 3.00.

For the molecule `CC(=O)OCC[N+](C)(C)C` [ACETYLCHOLINE], the pIC50 was less than 3.00. The same measure for `CC(=O)Nc1ccc(CC(=O)O)cc1` [ACTARIT]: less than 3.00; for `Nc1ncnc2nc[nH]c12` [ADENINE]: less than 3.00; for `CCN(CC)CCOC(=O)C(c1ccccc1)c1ccccc1` [ADIPHENINE]: 3.80. The same measure for `NC(=O)c1ccc([N+](=O)[O-])cc1Cl` [AKLOMIDE]: less than 3.00; for `CCC[S+]([O-])CCCN(CC)CC(O)COc1ccc(C#N)cc1` (configuration not stated) [ALMOKALANT]: 4.25.

As for `CN(C)c1nc(N(C)C)nc(N(C)C)n1` [ALTRETAMINE], the pIC50 was less than 3.00.

As for `N=C(N)NC(=O)c1nc(Cl)c(N)nc1N` [AMILORIDE], the pIC50 is less than 3.00. As to `CCC1(c2ccc(N)cc2)CCC(=O)NC1=O` (configuration not stated) [AMINOGLUTETHIMIDE], the pIC50 is less than 3.00. The same measure for `Nc1ccc(C(=O)NCC(=O)O)cc1` [AMINOHIPPURIC ACID]: less than 3.00; for `CCOC(=O)C1=C(COCCN)NC(C)=C(C(=O)OC)C1c1ccccc1Cl` (configuration not stated) [AMLODIPINE]: 4.80; for `CCN(CC)Cc1cc(Nc2ccnc3cc(Cl)ccc23)ccc1O` [AMODIAQUINE]: 4.11. The same measure for `Clc1ccc2c(c1)C(N1CCNCC1)=Nc1ccccc1O2` [AMOXAPINE]: 3.64; for `CCCc1ncc(C[n+]2ccccc2C)c(N)n1` [AMPROLIUM ION]: less than 3.00; for `c1ccc(CN(CC2=NCCN2)c2ccccc2)cc1` [ANTAZOLINE]: less than 3.00.

On to `Cc1cc(=O)n(-c2ccccc2)n1C` [ANTIPYRINE], for which the pIC50 is less than 3.00. The same measure for `COC(=O)C1=CCCN(C)C1` [ARECOLINE]: less than 3.00; for `C[C@H]1C[C@H]2[C@@H]3CCC4=CC(=O)C=C[C@]4(C)[C@@]3(Cl)[C@@H](O)C[C@]2(C)[C@@]1(O)C(=O)CO` [BECLOMETHASONE]: 4.63; for `NS(=O)(=O)c1cc2c(cc1C(F)(F)F)NC(Cc1ccccc1)NS2(=O)=O` (configuration not stated) [BENDROFLUMETHIAZIDE]: 4.16. As to `CC(C(=O)O)c1ccc2oc(-c3ccc(Cl)cc3)nc2c1` (configuration not stated) [BENOXAPROFEN], the pIC50 is 3.98. The result for `CCCCOc1cc(C(=O)OCCN(CC)CC)ccc1N` [BENOXINATE] reads 3.51.
